Experimental data as given in patent US20090165150A1, “DIRECTED COMPLEMENTATION WITH REMOVABLE GENE OF INTEREST” (priority 2007, published 2009).

Tests used:
[1] = test system: DC tumors; test: Xenograft of DC tumor cells (pL-Her2^YVMA complemented) in NCR nude mice maintained off doxycycline; assay type: in vivo, mouse; settings: 5 mice bearing DC tumors, Tamoxifen IP for 8 consecutive days, observed up to a month, untreated group had tumors within 10 days
Procedure: Minced DC tumor was thawed at 37° C. and cells were dissociated by passing through cell strainers (100 μm filters, BD Falcon Cat. No. 352360). The cells were collected and centrifuged at 1000 rpm for 5 minutes, washed twice with PBS and counted using hemocytometer and resuspended in one part PBS (Gibco Cat. No. 24020-117) to one part Matrigel (BD Cat. No. 3542334) for injections.
(§1) Tamoxifen treatment: To activate CreER^T2 and induce Cre mediated recombination (i.e., excision) between loxP sites, animals were treated with 0.1 ml tamoxifen (10 mg/ml in corn oil) through intraperitoneal (IP) injection for […].
(§2) About 0.1 million DC tumor cells were injected subcutaneously into 10 NCR nude mice on the right flank. These mice were maintained off doxycycline. Similarly 10 NCR nude mice were inoculated with archived BHc tumor and maintained on doxycycline. These mice were divided into 4 groups.
The fourth group contained of 5 mice bearing DC tumors. They were treated with Tamoxifen for 8 consecutive days.

[2] = test system: BHc tumors; test: Xenograft of archived BHc tumor in NCR nude mice maintained on doxycycline; assay type: in vivo, mouse; settings: 5 mice bearing BHc tumors, Tamoxifen IP for 8 consecutive days
Procedure: as §1, §2
The second group contained of 5 mice bearing BHc tumors. They were treated with Tamoxifen for 8 consecutive days.

In the case of `CC/C(=C(\c1ccccc1)c1ccc(OCCN(C)C)cc1)c1ccccc1` [Tamoxifen, tamoxifen], the tumor formation [1] is reported as “Tumors were never observed”, the “tumor growth compared with untreated group” value [2] is reported as “grew slower than group 1” and the “time until tumors were observed” value ([2]; all 5 mice, untreated group within 10 days) is reported as at most 12 days.
